{"source": "patent US20250044246A1", "about": "“NUCLEAR MAGNETIC RESONANCE METHODS OF DETERMINING HOMEOSTATIC PERTURBATIONS” (The United States of America, as represented by the …, priority 2021, published 2025)", "key": {"[1]": {"test_system": "viable \"live\" ex vivo neonatal mouse spinal cords", "experiment": "Real-time SG diffusion and SG-DEXSY measurements on viable spinal cords (Example 3)", "format": "cell-based", "experimental": "MR measurements were performed on viable “live” ex vivo neonatal mouse spinal cords at 13.79 MHz with a low-field single-sided magnet (PM-10 NMR MOUSE, Magritek) (Eidmann, et al., Journal of Magnetic Resonance, Series A, 122(1): 104-109 (1996)) and custom-made RF probe and solenoid coil (see FIG. 29). Diffusion was encoded on sub-micron length scales and sub-millisecond timescales with spin echoes in the presence of a g=15.3 T/m static gradient (SG) (Williamson, et al., Proceedings of the 28th annual International Society of Magnetic Resonance in Medicine (ISMRM) (2020)). SG diffusion measurements (Williamson, et al., Elife, 8: p. e51101 (2019)) and SG diffusion exchange spectroscopy (DEXY)-based exchange rate and spin-lattice relaxation rate measurements (as in Williamson, et al., Journal of Magnetic Resonance, 317: 106782 (2020)), with b1+b2=4.5 ms/μm^2) were repeatedly acquired (11 minutes per set) to observe real-time changes. During measurements, samples were maintained in a constant circulation of artificial cerebrospinal fluid (ACF) and gas and at 25° C."}, "[2]": {"test_system": "live ex vivo neonatal mouse spinal cords", "experiment": "Static-gradient spin echo diffusion NMR (ADCy, restricted fraction f) on live spinal cords (Example 1)", "format": "cell-based", "experimental": "(§1) All experiments were performed on Swiss Webster wild type (Taconic Biosciences, Rensselaer, NY, USA) mice between postnatal day 1 to 4. The mouse spinal cords were isolated and placed in a dissecting chamber perfused with cold low-calcium high magnesium artificial cerebrospinal fluid (aCSF, concentrations in mM: 128.35 NaCl, 4 KCl, 0.5 CaCl2·2H2O, 6 MgSO4·7H2O, 0.58 NaH2PO4·H2O, 21 NaHCO3, 30 D-glucose) bubbled with 95% O2 and 5% CO2). Live spinal cords were transported in low-calcium, high-magnesium aCSF to the NMR experimental apparatus. Fixed spinal cords were kept overnight in 4% paraformaldehyde at 4° C. and then stored in phosphate buffered saline (PBS) at 4° C., and washed with aCSF three times over the course of two days to remove any residual paraformaldehyde prior to experiments. Experiments on fixed and live spinal cords were performed using normal aCSF (same concentrations as the low-calcium high-magnesium solution except for 1.5 mM CaCl2·2H2O and 1 mM MgSO4·7H2O).\nThe same experimental conditions were used for live and fixed spinal cords. […]\nDiffusion experiments were performed using a standard sequence involving a spin echo (SE) for diffusion encoding followed by a CPMG signal acquisition (Rata, et al., Journal of Magnetic Resonance, 180(2): 229-235 (2006). τ (defined as half the SE echo time) was varied linearly from 0.05 to 3.3 ms over 22 steps with 4 scans per τ. This corresponds to b-values ranging from 0.001 to 400 ms/μm^2 where b=2/3γ^2g^2τ^3 (Carr, et al., Physical Review, 94(3): 630 (954), Hahn, Physical Review, 80(4): 580 (1950)). Points two through four (τ=0.2048 to 0.5143 ms, b=0.096 to 1.5 ms/μm^2) of diffusion data were fit with I(b)=I0 exp(−b ADC) to estimate the Apparent Diffusion Coefficient and I0. For measurements on spinal cords, the term ADCy is used, acknowledging that diffusion may be anisotropic but was measured only in the y direction, perpendicular to the cord. […]\n(§2) to estimate the restriction radius r and the restricted fraction f. Each estimate incorporated k measured from the rapid exchange experiment during the same set. […]"}, "[3]": {"test_system": "ex vivo neonatal mouse spinal cords", "experiment": "Multiexponential analysis of DEXSY exchange time distribution P(τk) (Example 5)", "format": "cell-based", "settings": "100 μM ouabain, 25° C., live tissue", "experimental": "The probability distribution functions of the exchange time were measured, P(τk)=P(1/k) by applying multi exponential analysis using numerical inverse Laplace transforms (ILTs) to data in which the effect of exchange has been isolated. Using a low-field, static gradient system, P(τk) data were acquired from ex vivo neonatal mouse spinal cords in three conditions: fixed, live, and live whilst treated with ouabain, a sodium-potassium pump inhibitor.\nThe static gradient DEXSY (SG-DEXSY) pulse sequence was implemented on a PM-10 NMR MOUSE single-sided magnet at ω0=13.79 MHz, B0=0.3239 T, g=15.3 T/m with a home-built solenoid RF coil and test chamber. 90°/180° RF pulse lengths=2/2 μs, pulse powers=−22/−16 dB, TR=2 s, 8000 echo CPMG train with TE=25 μs, 8 points per echo, and 0.5 μs dwell time.\nLive (i.e., viable) and fixed ex vivo neonatal (postnatal day 1-4) mouse spinal cords were studied. Spinal cords were bathed in artificial cerebrospinal fluid at 95% O2/5% CO2 and 25° C. For the ouabain treatment condition, ouabain was added at a saturating concentration of 100 μM.\nData were acquired at bs=4.5 ms/μm^2 over 69 values of tm=0.2-1000 ms. A biexponential fit to the log-ratio of signals was first performed to yield robust estimates of the intercept C0 and limit f∞/C1 (FIGS. 35A-35D). […]"}, "[4]": {"test_system": "organotypic CNS", "settings": "after blocking Na+/K+ pump with ouabain; cited from earlier work"}, "[5]": {"test_system": "Na+/K+-ATPase", "settings": "cited from earlier work"}, "[6]": {"test_system": "live ex vivo neonatal mouse spinal cords", "experiment": "Real-time DEXSY NMR water exchange rate and R1 DW on live spinal cords (Example 1)", "format": "cell-based", "settings": "100 μM ouabain", "experimental": "as §1\nA PM 10 NMR MOUSE single-sided permanent magnet (Eidmann, et al., Journal of Magnetic Resonance, 122: 104-109 (1996)) (Magritek, Aachen Germany) and a Kea 2 spectrometer (Magritek, Wellington, New Zealand) were used to perform NMR experiments at B0=0.3239 T (proton ω0=13.79 MHz) and […]. A test chamber and RF probe were fabricated to maximize SNR and maintain live spinal cord viability.\nSample temperature was controlled by heat exchange with one of two circulating water baths (Accel 250 LC, Thermo Scientific, USA, and WCR-P6 Precision Regulated Bath Circulator, Daihan Scientific, Lennox Laboratory supplies, Ireland). […] Sample temperature was monitored by a fiber optic sensor (PicoM, Opsens Solutions Inc., Quebec, Canada). […]\nExperimental protocols involved looping through sets of diffusion experiments and rapid DEXSY experiments to acquire repetitions of each. Noise and RF probe tuning were monitored at the beginning of each loop. […]\nas §2"}, "[7]": {"test_system": "live spinal cords", "experiment": "Osmolarity perturbation with sucrose, diffusion and DEXSY NMR on live spinal cords", "format": "cell-based, mouse", "settings": "+300 mM sucrose, live samples", "experimental": "as §1, with “MgSO4·7H2O). […]” for “MgSO4·7H2O).”\nas §2"}, "[8]": {"test_system": "fixed spinal cords", "experiment": "Osmolarity perturbation with sucrose, diffusion and DEXSY NMR on fixed spinal cords", "set-up": "species or system mouse", "experimental": "as §1\nDiffusion experiments were performed using a standard sequence involving a spin echo (SE) for diffusion encoding followed by a CPMG signal acquisition (Rata, et al., Journal of Magnetic Resonance, 180(2): 229-235 (2006). τ (defined as half the SE echo time) was varied linearly from 0.05 to 3.3 ms over 22 steps with 4 scans per τ. This corresponds to b-values ranging from 0.001 to 400 ms/μm^2 where b=2/3γ^2g^2τ^3 (Carr, et al., Physical Review, 94(3): 630 (954), Hahn, Physical Review, 80(4): 580 (1950)). Points two through four (τ=0.2048 to 0.5143 ms, b=0.096 to 1.5 ms/μm^2) of diffusion data were fit with I(b)=I0 exp(−b ADC) to estimate the Apparent Diffusion Coefficient and I0. For measurements on spinal cords, the term ADCy is used, acknowledging that diffusion may be anisotropic but was measured only in the y direction, perpendicular to the cord.\nas §2"}, "[9]": {"settings": "normal vs +300 mM sucrose, n=2 fixed samples"}}, "note": "Where “and” joins values, the source holds several entries; their conditions need not be identical. Equal values may be shown once. Entries after “also recorded” stand apart in the source; their conditions may differ."}
{"smiles": "Cc1onc(O)c1CC(N)C(=O)O", "note": "(stereo not drawn) [AMPA, α-amino-3-hydroxy-5-methyl-4-isoxazolepropionic acid]", "values": [{"measurement": "effect on exchange rate", "setting": "[1]; 5 μM and 10 μM AMPA, n=5", "value": "decreases; also recorded: causes exchange rate to decrease"}, {"measurement": "reversibility of the effect on washout", "setting": "[1]; AMPA washed out", "value": "recovers upon washout; also recorded: reversible"}, {"measurement": "effect of a second dose on exchange rate", "setting": "[1]; second dose of AMPA", "value": "less of an effect"}]}
{"smiles": "C[C@@H]1O[C@@H](O[C@H]2C[C@@H](O)[C@]3(CO)[C@H]4[C@H](O)C[C@]5(C)[C@@H](C6=CC(=O)OC6)CC[C@]5(O)[C@@H]4CC[C@]3(O)C2)[C@H](O)[C@H](O)[C@H]1O", "note": "[ouabain]", "values": [{"measurement": "decrease of apparent diffusion coefficient", "setting": "[2]; 100 μM ouabain, n=3", "value": "9±1", "unit": "%"}, {"measurement": "increase of restricted water fraction f", "setting": "[2]; 100 μM ouabain, n=3", "value": "22±6", "unit": "%"}, {"measurement": "ADCy", "setting": "[2]; ouabain-treated spinal cords, mean±SD, n=3, 25° C.", "value": "0.954±0.045", "unit": "μm^2/ms"}, {"measurement": "faster peak of exchange time distribution P(τk)", "setting": "[3]", "value": "reduced"}, {"measurement": "decrease of steady-state transmembrane water exchange rate", "setting": "[4]", "value": 50, "unit": "%"}, {"measurement": "reduction of Na+/K+-ATPase activity", "setting": "[5]; 100 μM ouabain", "value": 65, "unit": "%"}, {"measurement": "further increase of the effect on Na+/K+-ATPase activity", "setting": "[5]; doses higher than 100 μM ouabain", "value": 6, "unit": "%"}, {"measurement": "time until ouabain took effect after treatment", "setting": "[6]", "value": "roughly 10 minutes"}, {"measurement": "exchange rate k after ouabain addition", "setting": "[6]; 25° C., n=3, mean (±SD), normal k=140 s^−1", "value": "36 s⁻¹ and 36 ± 11 s⁻¹"}, {"measurement": "decrease of diffusion weighted spin-lattice relaxation rate R1 DW", "setting": "[6]; n=3", "value": "8±3", "unit": "%"}, {"measurement": "exchange rate after completely blocking Na+/K+ pump", "setting": "[1]; 100 μM ouabain", "value": 50, "unit": "s⁻¹"}, {"measurement": "mean apparent diffusion coefficient", "setting": "[1]; 100 μM ouabain", "value": "increases"}, {"measurement": "restricted volume", "setting": "[1]; 100 μM ouabain", "value": "increases"}, {"measurement": "spin lattice relaxation rate", "setting": "[1]; 100 μM ouabain", "value": "decreases"}, {"measurement": "time until effect after ouabain hits the sample", "setting": "[1]; 100 μM ouabain", "value": "roughly 10 minutes"}, {"measurement": "timescale from no effect to full effect", "setting": "[1]; 100 μM ouabain", "value": "roughly 2 minutes"}, {"measurement": "decrease in water exchange rate", "setting": "[1]; 100 μM ouabain, n=3", "value": 67, "unit": "%"}, {"measurement": "increase in relative cell volume", "setting": "[1]; 100 μM ouabain, n=3", "value": 27, "unit": "%"}, {"measurement": "dose dependence of effect on exchange rate", "setting": "[1]; 1-10 μM vs 100 μM ouabain", "value": "dose-independent effect; also recorded: all-or-none fashion"}, {"measurement": "exchange rate after partially blocking Na+/K+ pump", "setting": "[1]; doses as low as 1 μM ouabain, after a delay", "value": 50, "unit": "s⁻¹"}, {"measurement": "normalized restricted volume", "setting": "[1]; low (1-10 μM) doses of ouabain", "value": "not affected"}, {"measurement": "time until effect after hitting the sample", "setting": "[1]; low (1-10 μM) doses of ouabain, n=5", "value": "> 10", "unit": "min"}]}
{"smiles": "OC[C@H]1O[C@@](CO)(O[C@H]2O[C@H](CO)[C@@H](O)[C@H](O)[C@H]2O)[C@@H](O)[C@@H]1O", "note": "[sucrose]", "values": [{"measurement": "change of ADCy", "setting": "[7]", "value": "increases ADCy significantly"}, {"measurement": "change of ADCy", "setting": "[8]; +300 mM sucrose, fixed samples", "value": "increases negligibly"}, {"measurement": "change in exchange rate k", "setting": "[8]; [9]", "value": "no change"}, {"measurement": "change in restricted fraction", "setting": "[8]; [9]", "value": "insignificant"}, {"measurement": "exchange rate recovered to, in ouabain-treated state", "setting": "[1]; 100 mM sucrose added in ouabain-treated state (5 μM ouabain, FIG. 21), from 50 s^−1", "value": 150, "unit": "s⁻¹"}, {"measurement": "effect on exchange rate in normal conditions", "setting": "[1]; 100 mM sucrose, normal aCSF", "value": "small effect"}]}
